Patent US12202805B2, “Process for preparing (5S)-{[2-(4-carboxyphenyl)ethyl] |2-(2-{|3-chloro-4'-(trifluoromethyl)biphenyl-4-yl]methoxy}phenyl)ethyl]aminol-5,6,7,8-tetrahydroquinoline-2-carboxylic acid and its crystalline forms for use as pharmaceutically active compound” (Bayer Aktiengesellschaft, priority 2021, dated 2025)

What was measured:
[1] = tested on: acetylcholine [ACh] rat model; experiment: Acetylcholine [ACh] rat model (bronchodilation); conditions: in vivo
[2] = Protein binding via Transil assay, rat plasma; assay type: in vitro ADME
Protocol: (§1) Protein Binding of Comparative Example 11 and Comparative Example 1 was Analyzed Via Transil Assay, Described Below.
(§2) The distribution of a test substance between Transil® (phosphatidylcholine lipid bilayers immobilized on silica beads) and plasma is a characteristic feature of any pharmaceutical compound and is dependent on its extent of binding to plasma proteins. By comparing the distribution between Transil® and buffer with the distribution between Transil® and plasma of any species of interest, the unbound fraction in the plasma of the respective animal species can be calculated in vitro. The respective plasma and buffer concentrations were determined via a radioactivity analysis. A detailed description of the method and its validation was published by Schuhmacher et al. (2).

[3] = tested on: sGC; experiment: Efficacy under experimental conditions of oxidative stress (ODQ, L-NAME treatment); assay type: in vivo
[4] = Protein binding via Transil assay, dog plasma; assay type: in vitro ADME
Protocol: as §1, §2

[5] = tested on: unilateral ventilated minipig model; experiment: Unilateral ventilated minipig model as a proxy of VQ-mismatch; assay type: in vivo; conditions: inhaled application
[6] = tested on: Caco-2 cells; experiment: Caco-2 permeability test; assay type: in vitro ADME, human; conditions: 2 μM, 2 h at 37° C.
Protocol: E-3. Further Characterization E-3.1 Caco-2 Permeability Test
The in vitro permeation of a test compound across a Caco-2 cell monolayer is a well-established assay system to predict the permeability from the gastro-intestinal tract (1). The permeability of the compounds of the present invention in such Caco-2 cells was determined as described below:
Human caco-2 cells were seeded on 24-well insert plates and were allowed to grow for 14-16 days. For permeability studies, the test compounds were dissolved in DMSO and diluted to the final test concentration of 2 μM with transport buffer [Hanks' Buffered Salt Solution, Gibco/Invitrogen, further supplemented with glucose and HEPES]. For determination of the apical to basolateral permeability (PappA-B), the test compound solution was added to the apical side of the cell monolayer and transport buffer to the basolateral side of the monolayer; for determination of the basolateral to apical permeability (PappB-A), the test compound solution was added to the basolateral side of the cell monolayer and transport buffer to the apical side of the monolayer. Samples were taken from the donor compartment at the beginning of the experiment to confirm mass balance. After an incubation of 2 h at 37° C., samples were taken from both compartments. Samples were analyzed by LC-MS/MS, and the apparent permeability coefficients were calculated. Lucifer Yellow permeability was assayed for each cell monolayer to ensure cell monolayer integrity, and the permeability of Atenolol (low permeability marker) and Sulfasalazine (marker for active excretion) was determined for each batch as quality control.

[7] = Protein binding via Transil assay, minipig plasma; assay type: in vitro ADME; conditions: read-out: plasma fu (fraction unbound)
Protocol: as §1, §2

[8] = tested on: patients with PAH or CTEPH; experiment: E-2.4 inhaled single doses in patients with PAH or CTEPH: PVR, mPAP (right heart catheterization), safety; assay type: in vivo, human
Protocol: E-2.4 Inhaled Administration of Single Doses to Patients with PAH or CTEPH to Investigate the Reduction of Pulmonary Vascular Resistance (PVR)
Patients with PAH or CTEPH aged 18 to 80 years were treated in a clinical phase 1b study with orally inhaled single doses* of 240 μg (2 capsules of 120 μg), 480 μg (1 capsule of 480 μg), 1000 μg (1 capsule of 1000 μg), 2000 μg (2 capsules of 1000 μg) or 4000 μg (4 capsules of 1000 μg) of a dry powder formulation comprising example 4 (see C-1, e.g. tables 17 and 20) inserted into a handheld inhalation device, inhaled by deep inhalative breath into the deep parts of the lung (*single dose means the administration of one dosage form/capsule as well as administration of two or more dosage forms/capsules simultaneously or consecutively within a short time period). The included patients had no background treatment with standard of care (SoC) medication for PAH or CTEPH (such as endothelin antagonists, prostanoids, phosphodiesterase type 5 inhibitor or soluble guanylate cyclase stimulators). Patients in this study underwent invasive right heart catheterization as medically indicated routine diagnostic. Primary objective of the study was to investigate the peak percent reduction from baseline in PVR. Patients had to have a baseline pulmonary artery pressure (mPAP) of ≥25 mmHg and a PVR of ≥400 dyn·sec·cm^−5 (5 Wood Units) and were not to show vaso-responsiveness to initial iNO inhalation testing to be included in the per protocol analysis. Plasma concentrations (pharmacokinetics) of the administered drug at several time points after administration were measured and safety and tolerability was assessed.
The study is divided into two parts, Part A and Part B. In Part A escalating aforementioned single doses were administered to patients without background treatment with standard of care (SoC) medication for PAH or CTEPH (such as endothelin antagonists, prostanoids, phosphodiesterase type 5 inhibitor or soluble guanylate cyclase stimulators). In Part B, after finalization of Part A, a selected dose from PartA will be tested in further patients without background SoC treatment (group 1) and additionally in patients on monotherapy with SoC (group 2) and on dual combination therapy with SoC (group 3).
The PVR is a derived parameter from parameters directly measured during the right heart catheterization procedure. The direct parameters included in the calculation are: mean pulmonary arterial pressure [mmHg](mPAP), pulmonary capillary wedge pressure [mmHg] (PCWP), and cardiac output [1/min] (CO). The PVR is calculated according to the formula: PVR [dyn*sec*cm^−5]=80*(mPAP˜PCWP)/CO.

[9] = tested on: sGC; experiment: E-2.2 inhalative administration in healthy male subjects for 14 days: cGMP; assay type: in vivo, human; conditions: 1000 μg once daily inhaled
Protocol: E-2.2 Inhalative Administration of sGC Activators in Healthy Male Subjects for 14 Days to Evaluate Steady State Pharmacokinetics
Healthy white male subjects, aged 18 to 45 years and with a body mass index (BMI) above/equal 18.5 and below/equal 29.9 kg/m2 were treated in a clinical pharmacological phase I study for 14 days with inhaled once daily doses of 1000 μg (nominal dose) of Placebo or of dry powder formulation containing example 4. The subjects inhaled the drug powder from capsules (see under C, e.g. tables 17 and 20) inserted into a handheld inhalation device by one deep inhalative breath into the deep parts of the lung. The intended substantial reduction of increased blood pressure in the central pulmonary blood vessels cannot be evaluated in subjects without pathophysiological impairment of lung function. As surrogate for drug concentration in the lung, plasma concentrations over time have been analysed. […] Drug activity/target engagement in healthy men was controlled in the healthy subjects by analysing blood samples for cGMP.

O=C(O)c1ccc(CCN(CCc2ccccc2OCc2ccc(-c3ccc(C(F)(F)F)cc3)cc2Cl)[C@H]2CCCc3nc(C(=O)O)ccc32)cc1 [comparative example 11, (5S)-5-{[2-(4-carboxyphenyl)ethyl][2-(2-{[3-chloro-4′-(trifluoromethyl)[biphenyl]-4-yl]methoxy}phenyl)ethyl]amino}-5,6,7,8-tetrahydroquinoline-2-carboxylic acid]
effect on ventilation [1]: bronchodilatory effect
fraction unbound, times lower than comparative example 1 [2]: 1.6 times
efficacy under oxidative stress [3]: enhanced
fraction unbound, times lower than comparative example 1 [4]: 10 times
effect on PAP and oxygenation [5]: lowered PAP without negative effects on oxygenation
efflux ratio [6]: does not show an efflux ratio

O=C(O)c1ccc(CCN(CCc2ccccc2OCc2ccc(-c3ccc(C(F)(F)F)cc3)cc2Cl)[C@H]2CCCc3nc(C(=O)O)ccc32)cc1 [example 2, (5S)—{[2-(4-Carboxyphenyl)ethyl][2-(2-{[3-chloro-4′-(trifluoromethyl)biphenyl-4-yl]methoxy}phenyl)-ethyl]amino}-5,6,7,8-tetrahydroquinoline-2-carboxylic acid as Monohydrate II]
fraction unbound [7]: 0.00348

O=C(O)c1ccc(CCN(CCc2ccccc2OCc2ccc(-c3ccc(C(F)(F)F)cc3)cc2Cl)[C@H]2CCCc3nc(C(=O)O)ccc32)cc1 [example 4, (5S)—{[2-(4-Carboxyphenyl)ethyl][2-(2-{[3-chloro-4′-(trifluoromethyl)biphenyl-4-yl]methoxy}phenyl)-ethyl]amino}-5,6,7,8-tetrahydroquinoline-2-carboxylic acid as Monohydrate I]
changes of systemic blood pressure, heart rate and oxygen saturation ([8]; at any dose): did not represent a safety concern
tolerability ([8]; including the highest dose of 4000 μg): good tolerability
systemic cGMP ([8]; patients with PAH or CTEPH): Increase
duration of sustained effect with no decrease in response ([8]; until end of the measurement period): ≥ 3 h
steady state of cGMP concentration reached after days of treatment [9]: ≤ 11 days
